Molecular target: T1, NG-FlhF (Shewanella putrefaciens, UniProt A4Y8J9)
T1 construct: gene Sputcn32_2561; NG domain, residues 174-460, C-terminal His6 tag, recombinant from E. coli BL21(DE3), monomer; residues 183-437 modelled
T1 sequence (A4Y8J9 174-460): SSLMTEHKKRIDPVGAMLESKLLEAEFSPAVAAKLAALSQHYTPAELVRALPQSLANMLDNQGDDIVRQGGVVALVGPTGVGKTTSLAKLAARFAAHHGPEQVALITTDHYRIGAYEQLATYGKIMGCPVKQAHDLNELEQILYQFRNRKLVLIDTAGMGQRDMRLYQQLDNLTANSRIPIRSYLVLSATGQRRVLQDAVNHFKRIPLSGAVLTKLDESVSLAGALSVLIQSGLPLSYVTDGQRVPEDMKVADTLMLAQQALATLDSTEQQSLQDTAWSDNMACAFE
Test: X-ray crystal structure
Type: binding
Conditions: 5 mM GDP pre-incubated with protein; crystallised at pH 5.0, 20 °C; nucleotide site, no Mg2+ in active site

Nc1nc2c(ncn2[C@@H]2O[C@H](COP(=O)(O)OP(=O)(O)O)[C@@H](O)[C@H]2O)c(=O)[nH]1 [GDP]
X-ray crystal structure: Density which could unambiguously be assigned to GDP was found in the active center

Reference: article PMC10910532, “Structure of the GDP-bound state of the SRP GTPase FlhF” (Acta Crystallographica. Section F, Structural Biology …, 2024)
